Assay results published in ChEMBL document CHEMBL1201862, “PubChem BioAssay data set” (2004).
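Five compound concentrations were applied to cells in 96-well plates for 48 hours; endpoints were derived by simple linear interpolation of the resulting dose-response curve. Abbreviation: GI50, concentration required for 50% inhibition of growth.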 Activity calls are given as the source filed them. No stated cut-off is given here; in the data, active = GI50 up to about 1.1 µM and inactive = higher.

Key:
Experiment in all cases: NCI anticancer screen, dose series, 48 h
786-0 = system: 786-0
A498 = system: A498
A549 = system: A549
ACHN = system: ACHN
CAKI-1 = system: CAKI-1
CCRF-CEM = system: CCRF-CEM
COLO 205 = system: COLO 205
DU-145 = system: DU-145
EKVX = system: EKVX
HCC 2998 = system: HCC 2998
HCT-116 = system: HCT-116
HCT-15 = system: HCT-15
HL-60 = system: HL-60
HOP-62 = system: HOP-62
HOP-92 = system: HOP-92
HT-29 = system: HT-29
Hs-578T = system: Hs-578T
IGROV-1 = system: IGROV-1
K562 = system: K562
KM12 = system: KM12
LOX IMVI = system: LOX IMVI
M14 = system: M14
MCF7 = system: MCF7
MDA-MB-231 = system: MDA-MB-231
MDA-MB-435 = system: MDA-MB-435
MDA-N = system: MDA-N
MOLT-4 = system: MOLT-4
Malme-3M = system: Malme-3M
NCI-H226 = system: NCI-H226
NCI-H23 = system: NCI-H23
NCI-H460 = system: NCI-H460
NCI-H522 = system: NCI-H522
NCI/ADR-RES = system: NCI/ADR-RES
OVCAR-3 = system: OVCAR-3
OVCAR-4 = system: OVCAR-4
OVCAR-5 = system: OVCAR-5
OVCAR-8 = system: OVCAR-8
PC-3 = system: PC-3
RPMI-8226 = system: RPMI-8226
SF-268 = system: SF-268
SF-295 = system: SF-295
SF-539 = system: SF-539
SK-MEL-28 = system: SK-MEL-28
SK-MEL-2 = system: SK-MEL-2
SK-MEL-5 = system: SK-MEL-5
SK-OV-3 = system: SK-OV-3
SN12C = system: SN12C
SNB-19 = system: SNB-19
SNB-75 = system: SNB-75
SW-620 = system: SW-620
T47D = system: T47D
TK-10 = system: TK-10
U-251 = system: U-251
UACC-257 = system: UACC-257
UACC-62 = system: UACC-62
UO-31 = system: UO-31
RXF 393 = system: RXF 393
SR = system: SR

Structure (SMILES): CC(=O)N(CN1C(=O)CCC1C(=O)O)c1ccc(C)cc1 (configuration not stated)
- GI50 (786-0): > 100 µM (inactive)
- GI50 (A498): > 100 µM (inactive)
- GI50 (A549): > 100 µM (inactive)
- GI50 (ACHN): > 100 µM (inactive)
- GI50 (CAKI-1): > 100 µM (inactive)
- GI50 (CCRF-CEM): > 100 µM (inactive)
- GI50 (COLO 205): > 100 µM (inactive)
- GI50 (DU-145): > 100 µM (inactive)
- GI50 (EKVX): > 100 µM (inactive)
- GI50 (HCC 2998): > 100 µM (inactive)
- GI50 (HCT-116): > 100 µM (inactive)
- GI50 (HCT-15): > 100 µM
- GI50 (HL-60): > 100 µM (inactive)
- GI50 (HOP-62): > 100 µM (inactive)
- GI50 (HOP-92): > 100 µM (inactive)
- GI50 (HT-29): > 100 µM (inactive)
- GI50 (Hs-578T): > 100 µM (inactive)
- GI50 (IGROV-1): > 100 µM (inactive)
- GI50 (K562): > 100 µM (inactive)
- GI50 (KM12): > 100 µM (inactive)
- GI50 (LOX IMVI): > 100 µM (inactive)
- GI50 (M14): > 100 µM (inactive)
- GI50 (MCF7): > 100 µM (inactive)
- GI50 (MDA-MB-231): > 100 µM (inactive)
- GI50 (MDA-MB-435): > 100 µM (inactive)
- GI50 (MDA-N): > 100 µM (inactive)
- GI50 (MOLT-4): > 100 µM (inactive)
- GI50 (Malme-3M): > 100 µM (inactive)
- GI50 (NCI-H226): > 100 µM (inactive)
- GI50 (NCI-H23): > 100 µM (inactive)
- GI50 (NCI-H460): > 100 µM (inactive)
- GI50 (NCI-H522): > 100 µM (inactive)
- GI50 (NCI/ADR-RES): > 100 µM (inactive)
- GI50 (OVCAR-3): > 100 µM (inactive)
- GI50 (OVCAR-4): > 100 µM (inactive)
- GI50 (OVCAR-5): > 100 µM (inactive)
- GI50 (OVCAR-8): > 100 µM (inactive)
- GI50 (PC-3): > 100 µM (inactive)
- GI50 (RPMI-8226): > 100 µM (inactive)
- GI50 (SF-268): > 100 µM (inactive)
- GI50 (SF-295): > 100 µM (inactive)
- GI50 (SF-539): > 100 µM (inactive)
- GI50 (SK-MEL-28): > 100 µM (inactive)
- GI50 (SK-MEL-2): > 100 µM (inactive)
- GI50 (SK-MEL-5): > 100 µM (inactive)
- GI50 (SK-OV-3): > 100 µM (inactive)
- GI50 (SN12C): > 100 µM (inactive)
- GI50 (SNB-19): > 100 µM (inactive)
- GI50 (SNB-75): > 100 µM (inactive)
- GI50 (SW-620): > 100 µM (inactive)
- GI50 (T47D): > 100 µM (inactive)
- GI50 (TK-10): > 100 µM (inactive)
- GI50 (U-251): > 100 µM (inactive)
- GI50 (UACC-257): > 100 µM (inactive)
- GI50 (UACC-62): > 100 µM (inactive)
- GI50 (UO-31): > 100 µM (inactive)

Structure (SMILES): CCCCCCCCCCCCCCCCP(=O)(O)OCC(N)C(=O)O (configuration not stated)
- GI50 (786-0): 42 µM (inactive)
- GI50 (A498): 23.6 µM (inactive)
- GI50 (A549): 46.2 µM (inactive)
- GI50 (ACHN): 22.3 µM (inactive)
- GI50 (CAKI-1): 19.1 µM (inactive)
- GI50 (CCRF-CEM): 33.5 µM (inactive)
- GI50 (COLO 205): 46.1 µM (inactive)
- GI50 (DU-145): > 100 µM (inactive)
- GI50 (EKVX): > 100 µM (inactive)
- GI50 (HCC 2998): 40.5 µM (inactive)
- GI50 (HCT-116): 19.6 µM (inactive)
- GI50 (HCT-15): 31.3 µM
- GI50 (HL-60): 18.7 µM (inactive)
- GI50 (HOP-62): 23.4 µM (inactive)
- GI50 (HOP-92): 23.7 µM (inactive)
- GI50 (HT-29): 55.3 µM (inactive)
- GI50 (Hs-578T): 54 µM (inactive)
- GI50 (IGROV-1): 14.1 µM (inactive)
- GI50 (K562): > 100 µM (inactive)
- GI50 (KM12): 20.3 µM (inactive)
- GI50 (LOX IMVI): 17.1 µM (inactive)
- GI50 (M14): 50.2 µM (inactive)
- GI50 (MDA-MB-231): 32.1 µM (inactive)
- GI50 (MDA-MB-435): 37.3 µM (inactive)
- GI50 (MDA-N): 33.2 µM (inactive)
- GI50 (MOLT-4): 17.3 µM (inactive)
- GI50 (Malme-3M): > 100 µM (inactive)
- GI50 (NCI-H226): 25.5 µM (inactive)
- GI50 (NCI-H23): 90.4 µM (inactive)
- GI50 (NCI-H460): 22.8 µM (inactive)
- GI50 (NCI-H522): 12.1 µM (inactive)
- GI50 (NCI/ADR-RES): > 100 µM (inactive)
- GI50 (OVCAR-3): 23.6 µM (inactive)
- GI50 (OVCAR-4): 37.9 µM (inactive)
- GI50 (OVCAR-5): 21.1 µM (inactive)
- GI50 (OVCAR-8): > 100 µM (inactive)
- GI50 (PC-3): 14.9 µM (inactive)
- GI50 (RPMI-8226): 21 µM (inactive)
- GI50 (RXF 393): 33.7 µM (inactive)
- GI50 (SF-268): 27.7 µM (inactive)
- GI50 (SF-295): 20.7 µM (inactive)
- GI50 (SF-539): 26.6 µM (inactive)
- GI50 (SK-MEL-28): > 100 µM (inactive)
- GI50 (SK-MEL-2): 26.4 µM (inactive)
- GI50 (SK-MEL-5): 33 µM (inactive)
- GI50 (SK-OV-3): 56.1 µM (inactive)
- GI50 (SN12C): 41.5 µM (inactive)
- GI50 (SNB-19): 16.9 µM (inactive)
- GI50 (SNB-75): 26.9 µM (inactive)
- GI50 (SR): 13.7 µM (inactive)
- GI50 (SW-620): 28.7 µM (inactive)
- GI50 (T47D): > 100 µM (inactive)
- GI50 (U-251): 29.8 µM (inactive)
- GI50 (UACC-257): > 100 µM (inactive)
- GI50 (UACC-62): 44.5 µM (inactive)
- GI50 (UO-31): 16 µM (inactive)
